Experiments:
[1] = Metabolic stability in pooled human liver microsomes; format: in vitro ADME; conditions: pH 7.4, pooled HLMs 1 mg/mL, NADPH, 1 µM compound, 37 °C
Method: Stock solutions of studied compounds were prepared at concentration of 100 µM in 1:1 acetonitrile/water mixture. Incubation mixes consisted 1 μM of a studied compound, 100 µM of NADPH in phosphate buffer and 1 mg/mL of pooled HLMs (Sigma-Aldrich, St. Louis, MO, USA) in potassium phosphate buffer (0.1 M, pH 7.4). Incubation was carried out in 96-well plates at 37 °C. Incubation mixtures (excluding compound solution) were subjected to 5 min preincubations, and started by addition of 10 µL of compound stock solution. After 0, 5, 10, 15, and 30 min, 25 µL samples of incubation reaction were added to the equal volume of ice-cold acetonitrile containing 1 µM of IS (buspirone hydrochloride). Control incubations were performed without NADPH to assess possible chemical instability. All samples were immediately centrifuged (10 min, 10,000 rpm) and the resulting supernatant was directly subjected to LC-MS analysis.
LC-MS analysis was performed on an Agilent 1260 system coupled to SingleQuad 6120 mass spectrometer (Agilent Technologies, Santa Clara, CA, USA). A Poroshell C18 EC120 column (3.0 × 100 mm^2, 2.7 μm, Agilent Technologies, Santa Clara, CA, USA) was used in reversed-phase mode with gradient elution starting with 90% of phase A (0.1% formic acid in deionised water) and 10% of phase B (0.1% formic acid in acetonitrile). […]

D2 receptors = target: T1, D2 receptors (Homo sapiens, UniProt P14416); assay: D2 radioligand binding assay; conditions: [3H]-raclopride; HEK293 cells, human receptor
T1 construct: expressed in transfected cells
T1 sequence (P14416 whole entry): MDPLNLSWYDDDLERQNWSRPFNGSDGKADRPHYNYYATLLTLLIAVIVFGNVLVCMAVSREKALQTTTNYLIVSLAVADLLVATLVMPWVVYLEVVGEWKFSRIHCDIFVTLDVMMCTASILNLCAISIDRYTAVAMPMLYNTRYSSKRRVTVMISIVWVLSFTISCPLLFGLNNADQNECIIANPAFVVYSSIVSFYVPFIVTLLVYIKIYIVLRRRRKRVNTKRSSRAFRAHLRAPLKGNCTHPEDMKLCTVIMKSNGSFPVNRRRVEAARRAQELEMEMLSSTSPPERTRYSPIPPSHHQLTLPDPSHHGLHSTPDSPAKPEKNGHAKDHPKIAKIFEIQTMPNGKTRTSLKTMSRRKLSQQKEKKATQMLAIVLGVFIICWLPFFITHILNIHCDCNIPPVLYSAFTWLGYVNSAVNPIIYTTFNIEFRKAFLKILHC
Method: In vitro radioligand binding assays for 5-HT2A, 5-HT6, 5-HT7 and D2 receptors were carried out using methods published by Zajdel et al.. For the assays, HEK293 cell cultures stably expressing the investigated human receptors were used. Cell pellets were thawed and homogenized in 20 vol of assay buffer using an Ultra Turrax tissue homogenizer, then centrifuged twice at 35000 g for 20 min at 4 °C, with incubation for 15 min at 37 °C in between. The composition of the assay buffers was as follows: for 5-HT2A receptors—50 mM Tris-HCl, 0.1 mM EDTA, 4 mM MgCl2 and 0.1% ascorbate; for 5-HT6 receptors—50 mM Tris-HCl, 0.5 mM EDTA, 4 mM MgCl2; for 5-HT7 receptors—50 mM Tris-HCl, 4 mM MgCl2, 10 µM pargyline and 0.1% ascorbate; for D2 receptors—50 mM Tris-HCl, 1 mM EDTA, 4 mM MgCl2, 120 mM NaCl, 5 mM KCl, 1.5 mM CaCl2 and 0.1% ascorbate. All assays were incubated in total volume of […] in 96-well microtitre plates for 1 h at 37 °C, except for 5-HT2A receptors which were incubated at room temperature for 1.5 h. The process of equilibration was terminated by rapid filtration through Unifilter plates with a 96-well cell harvester, and radioactivity retained on the filters was quantified on a Microbeta plate reader (PerkinElmer, USA). For displacement studies, the assay samples contained as radioligands (PerkinElmer): 2 nM [^3H]-ketanserin (spec. act. 53.4 Ci/mmol) for 5-HT2A receptors; 2 nM [^3H]-LSD (spec. act. 83.6 Ci/mmol) for 5-HT6 receptors; 0.6 nM [^3H]-5-CT (spec. act. 39.2 Ci/mmol) for 5-HT7 receptors and [^3H]-raclopride (spec. act. 76.0 Ci/mmol) for D2 receptors. […] Each compound was tested in triplicate at 7–8 concentrations (10^-11-10^-4 M). The inhibition constants (Ki) were calculated from the Cheng–Prusoff equation [46]. Results were expressed as means of at least two separate experiments.

human 5-HT1A receptor = target: T2, human 5-HT1A receptor (Homo sapiens, UniProt P08908); assay: 5-HT1A radioligand binding assay; conditions: [3H]-8-OH-DPAT 1 nM; membranes from CHO-K1 cells with human 5-HT1A receptor
T2 construct: purchased PerkinElmer; host or cells: CHO-K1 cells, stably transfected
T2 sequence (P08908 1-422): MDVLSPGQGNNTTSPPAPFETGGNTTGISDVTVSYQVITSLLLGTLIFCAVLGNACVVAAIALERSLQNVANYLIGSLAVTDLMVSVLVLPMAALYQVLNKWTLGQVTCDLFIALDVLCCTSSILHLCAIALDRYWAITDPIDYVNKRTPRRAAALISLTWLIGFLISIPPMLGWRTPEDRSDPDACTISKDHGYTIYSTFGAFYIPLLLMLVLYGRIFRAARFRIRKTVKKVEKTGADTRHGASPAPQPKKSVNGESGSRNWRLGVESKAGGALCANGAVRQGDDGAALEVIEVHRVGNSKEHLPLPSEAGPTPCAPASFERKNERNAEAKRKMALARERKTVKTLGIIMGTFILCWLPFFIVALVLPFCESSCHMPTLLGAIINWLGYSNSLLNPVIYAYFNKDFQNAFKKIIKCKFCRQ
Method: Radioligand binding was performed using membranes from CHO-K1 cells stably transfected with the human 5-HT1A receptor (PerkinElmer, Fremont, CA, USA). All assays were carried out in duplicate. Then, 50 µL working solution of the tested compounds, 50 µL [^3H]-8-OH-DPAT (final concentration 1 nM) and 150 µL diluted membranes (20 µg protein per well) prepared in assay buffer (50 mM Tris, pH 7.4, 10 mM MgSO4, 0.5 mM EDTA, 0.1% ascorbic acid) were transferred to a polypropylene 96-well microplate using 96-wells pipetting station Rainin Liquidator (MettlerToledo, Columbus, OH, USA). […] The reaction was terminated by rapid filtration through GF/B filter mate, presoaked with 0.5% polyethyleneimine for 30 min. Ten rapid washes with 200 µL 50 mM Tris buffer (4 °C, pH 7.4) were performed using an automated harvester system—Harvester-96 MACH III FM (Tomtec, Hamden, CT, USA). […] Data were fitted to a one-site curve-fitting equation with Prism 6 (GraphPad Software, San Diego, CA, USA) and Ki values were estimated from the Cheng–Prusoff equation.

Structure (SMILES) | half-life at 1 µM [1] [min] | Ki (D2 receptors) [nM] | Ki (human 5-HT1A receptor) [nM]
O=c1c(-c2ccccc2Cl)c2ccccn2c(=O)n1CCCCN1CCC(c2noc3cc(F)ccc23)CC1 [Compound 6d, 4-(2-Chlorophenyl)-2-{4-[4-(6-fluoro-1,2-benzoxazol)-1-piperidyl]butyl}-pyrido[1,2-c]pyrimidine-1,3-dione] | 3.2 | 9 ± 2 | 11 ± 1.4
O=c1c(-c2ccccc2)c2ccccn2c(=O)n1CCCCN1CCC(c2noc3cc(F)ccc23)CC1 [Compound 6a, 4-Phenyl-2-{4-[4-(6-fluoro-1,2-benzoxazol-3-yl)-1-piperidyl]butyl}-pyrido[1,2-c]pyrimidine-1,3-dione] | 3.61 | 7 ± 2 | 23 ± 1

— PMC7956643, “Synthesis of Novel Pyrido[1,2-c]pyrimidine Derivatives with 6-Fluoro-3-(4-piperidynyl)-1,2-benzisoxazole Moiety as Potential SSRI and 5-HT1A Receptor Ligands” (International Journal of Molecular Sciences, 2021)
